In patent US4593090A, “Novel nitrosourea compounds, method for preparing same, and pharmaceutical composition containing same” (Gogo Kimura, priority 1981, dated 1986):

How the values were obtained:
[1] = tested on: Leukemia L1210; assay: Activity against Leukemia L1210, oral, increase in life span of mice; type: in vivo, female mice (BDF1 family); details: for ED (maximum ILS) / ED30: Mus musculus, L1210; for ED (maximum ILS): read-out: O.D. (optimum dosage); for ED30: read-out: ILS30; for Survivors after 60 days / Max. ILS % / Therapeutic ratio TR: oral; for Survivors after 60 days: 6-membered group; for Max. ILS %: 60-day observation, versus control; for Therapeutic ratio TR: O.D./ILS30
Experimental: Tests were conducted in accordance with the method for measuring antitumor activity of National Cancer Center Tokyo (A, Hoshi et al, Farumashia 9 464 (1973)). Test compounds were each intraperitoneally (referred to as ip) or orally (referred to as op) administered once a day for 5 successive days to a 6-membered group of femal mice (BDF1 family, each weighing 20 to 23 g) 24 hours after 1×10^5 cells of Leukemia L1210 have been implantated into the abdominal cavities of the mice, and the effect was evaluated by comparing the survival days of treated groups with those of an untreated group of mice (control group) in 60-day observation. An increase percentage of life span (ILS%) was calculated from said average survival days compared with those of the control group. Further, therapeutic ratio (O.D./ILD30, referred to as T.R.) of each tested compound was calculated from the daily dosage of the compound necessary to increase said average survival days by 30% as compared with the control group (this dosage is referred to as ILS 30) and the daily dosage giving a maximum increase of life span to mice implantated with L1210 cells, namely an optimum dosage (referred to as O.D.). The results of five successive days intraperitoneal administrations of test compounds were shown in Tables I to III, and those of five successive oral administrations in Table IV.

[2] = tested on: Leukemia L1210; assay: Activity against Leukemia L1210, intraperitoneal, increase in life span of mice; type: in vivo, female mice (BDF1 family); details: for ED (maximum ILS) / ED30: Mus musculus, L1210, ip; for ED (maximum ILS): read-out: O.D. (optimum dosage); for ED30: read-out: ILS30; for Survivors after 60 days / Max. ILS % / Therapeutic ratio TR: ip; for Survivors after 60 days: 6-membered group; for Max. ILS %: 60-day observation, versus control; for Therapeutic ratio TR: O.D./ILS30
In short: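 Beginning 24 hours after intraperitoneal implantation of 1×10^5 leukemia cells, six-mouse groups of female BDF1 mice receive the test compound once daily for five consecutive days by the ip or oral route. Survival is recorded up to 60 days and compared with untreated controls.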

[3] = Acute toxicity (LD50, Behrens-Karber method); type: in vivo, ICR mice; details: ip, mortality during 30 days; for LD50 at 720 h: mouse, in vivo
Experimental: Test compounds, dissolved or suspended in 0.5% aqueous CMC, were each intraperitoneally administered to ICR mice in a dose of 0.1 ml per 10 g body weight. LD50 (mg/kg) value of each test compound was calculated from the mortality of mice during 30 days by the Behrens-Karber method.

[4] = oral once a day for 5 successive days, daily dosage giving maximum increase of life span
[5] = oral once a day for 5 successive days, daily dosage increasing average survival days by 30%
[6] = ip once a day for 5 successive days, daily dosage giving maximum increase of life span
[7] = ip once a day for 5 successive days, daily dosage increasing average survival days by 30%

| Compound | ED (maximum ILS) [1, 4] [mg/kg] | ED30 [1, 5] [mg/kg] | Survivors after 60 days [1] | Max. ILS % [1] [%] | Therapeutic ratio TR [1] | ED (maximum ILS) [2, 6] [mg/kg] | ED30 [2, 7] [mg/kg] | Survivors after 60 days [2] | Max. ILS % [2] [%] | Therapeutic ratio TR [2] | LD50 at 720 h [3] [mg/kg] | O.D. (optimum dosage) [1, 4] [mg/kg] | ILS30 [1, 5] [mg/kg] | O.D. (optimum dosage) [2, 6] [mg/kg] | ILS30 [2, 7] [mg/kg] | LD50 [3] [mg/kg] |
| --- | --- | --- | --- | --- | --- | --- | --- | --- | --- | --- | --- | --- | --- | --- | --- | --- |
| COC(C)CN(C(=O)N(CCCl)N=O)[C@@H]1[C@@H](OCC(C)C)OC[C@@H](O)[C@H]1O (stereo partly drawn) [Compound 159, 3-(2-methoxy-n-propyl)-3-(isobutyl α-D-arabinopyranose-2-yl)-1-(2-chloroethyl)-1-nitrosourea] | 180 | 10.9 | 5/6 | > 625 | 16.5 | 160 | 2.61 | 6/6 | > 700 | 61.3 | 520 |  |  |  |  |  |
| O=NN(CCCl)C(=O)N(CC1CCCO1)[C@H]1[C@H](OC2CCCCC2)OC[C@H](O)[C@@H]1O (stereo partly drawn) [Compound 156, 3-tetrahydrofurfuryl-3-(cyclohexyl α-L-arabinopyranose-2-yl)-1-(2-chloroethyl)-1-nitrosourea] | 180 | 9.78 | 4/6 | > 460 | 18.4 | 150 | 2.45 | 6/6 | > 700 | 61.2 | 480 |  |  |  |  |  |
| COCC(C)N(C(=O)N(CCCl)N=O)[C@H]1[C@@H](O)[C@@H](CO)O[C@H](OCC(C)C)[C@@H]1O (stereo partly drawn) [Compound 126, 3-(1-methyl-2-methoxyethyl)-3-(isobutyl α-D-galactopyranose-3-yl)-1-(2-chloroethyl)-1-nitrosourea] | 240 | 15.4 | 3/6 | > 350 | 15.6 | 250 | 6.22 | 3/6 | > 355 | 40.2 | 785 |  |  |  |  |  |
| COCC(C)N(C[C@H]1O[C@H](OC2CCCCC2)[C@@H](O)[C@@H](O)[C@H]1O)C(=O)N(CCCl)N=O (stereo partly drawn) [Compound 145, 3-(1-methyl-2-methoxyethyl)-3-(cyclohexyl α-D-talopyranose-6-yl)-1-(2-chloroethyl)-1-nitrosourea] | 200 | 10.9 | 4/6 | > 450 | 18.3 | 170 | 2.91 | 6/6 | > 700 | 58.4 | 580 |  |  |  |  |  |
| CC(C)CN(C[C@@H]1O[C@@H](OC2CCCCC2)[C@H](O)[C@@H]1O)C(=O)N(CCCl)N=O [Compound 171, 3-isobutyl-3-(cyclohexyl α-L-lyxofuranose-5-yl)-1-(2-chloroethyl)-1-nitrosourea] | 190 | 11.7 | 4/6 | > 450 | 16.2 | 150 | 3.3 | 4/6 | > 440 | 45.5 | 450 |  |  |  |  |  |
| COCCOCCO[C@H]1O[C@H](CN(C(=O)N(CCCl)N=O)C(C)(C)C)[C@@H](O)[C@H](O)[C@H]1O [Compound 197] | 200 | 9.26 | 5/6 | > 625 | 21.6 | 160 | 2.7 | 6/6 | > 700 | 59.2 | 530 |  |  |  |  |  |
| COCCCO[C@@H]1O[C@H](CN(CC(C)C)C(=O)N(CCCl)N=O)[C@@H](O)[C@H]1O [Compound 167, 3-isobutyl-3-(3-methoxy-n-propyl β-D-ribofuranose-5-yl)-1-(2-chloroethyl)-1-nitrosourea] | 180 | 12 | 4/6 | > 450 | 15.0 | 160 | 3.17 | 4/6 | > 430 | 50.5 | 510 |  |  |  |  |  |
| CC(C)CN(C[C@H]1O[C@@H](OC2CCCCC2)[C@@H](O)[C@@H]1O)C(=O)N(CCCl)N=O [Compound 161, 3-isobutyl-3-(cyclohexyl β-D-arabinofuranose-5-yl)-1-(2-chloroethyl)-1-nitrosourea] | 180 | 12.7 | 3/6 | > 350 | 14.2 | 150 | 3.18 | 4/6 | > 440 | 47.2 | 460 |  |  |  |  |  |
| CCCCOC1OC(CO)C(O)C(N(CC(C)OC)C(=O)N(CCCl)N=O)C1O [Compound 83, 3-(2-methoxy-n-propyl)-3-(n-butyl α-D-glucopyranose-3-yl)-1-(2-chloroethyl)-1-nitrosourea] | 240 | 16.8 | 3/6 | > 360 | 14.3 | 200 | 5.03 | 4/6 | > 425 | 39.8 | 665 |  |  |  |  |  |
| CC(C)CO[C@H]1O[C@H](CN(CC(C)(C)C)C(=O)N(CCCl)N=O)[C@@H](O)[C@H](O)[C@H]1O [Compound 183, 3-neopentyl-3-(isobutyl α-D-glucopyranose-6-yl)-1-(2-chloroethyl)-1-nitrosourea] | 200 | 13.2 | 4/6 | > 460 | 15.2 | 170 | 3.01 | 6/6 | > 700 | 56.4 | 520 |  |  |  |  |  |
| O=NN(CCCl)C(=O)N[C@H]1C(O)O[C@H](CO)[C@@H](O)[C@@H]1O (stereo partly drawn) [DCNU, reference compound] | 100 |  | 0/6 | 20 |  | 6.2 | 0.7 | 5/6 | > 625 | 8.9 | 39 |  |  |  |  |  |
| 3-tert-butyl-3-(1-methoxy-2-methoxyethyl α-D-glucopyranose-6-yl)-1-(2-chloroethyl)-1-nitrosourea [Compound 195] |  |  | 5/6 | > 620 | 23.5 |  |  | 6/6 | > 700 | 55.4 |  | 200 | 8.51 | 160 | 2.89 | 540 |
| CCOCCN(C(=O)N(CCCl)N=O)C1C(OC2CCCCC2)OC(CO)C(O)C1O [Compound 64, 3-(2-ethoxyethyl)-3-(cyclohexyl α-D-glucopyranose-2-yl)-1-(2-chloroethyl)-1-nitrosourea] | 240 | 13.2 | 4/6 | > 460 | 18.2 | 200 | 4.76 | 4/6 | > 450 | 42.0 | 650 |  |  |  |  |  |
